EP1154766B1, “USE OF R-ARYL PROPIONIC ACIDS FOR PRODUCING MEDICAMENTS TO TREAT DISEASES IN HUMANS AND ANIMALS, WHEREBY SAID DISEASES CAN BE […] INFLUENCED BY INHIBITING THE ACTIVATION OF NF-KAPPA B” (PAZ Arzneimittel- Entwicklungsgesellschaft mbH, priority 1999, dated 2000)

Columns and labels:
NF-κB = experiment: Inhibition of NF-κB activation, method not stated; details: arylpropionic acid derivatives without notable CoA thioester formation in humans
[1] = tested on: Zymosan-induzierte Rattenpfotenödem; experiment: Zymosan-induced rat paw oedema (plethysmograph); format: in vivo, Ratte; details: for Pfotenvolumen: rat, intraplantar zymosan, R-Flurbiprofen 1 to 27 mg/kg intraperitoneal, Abb. 3a-c
From the text: Da der nukleäre Transkriptionsfaktor NF-κB u.a. für die Bildung, einer Reihe von Enzymen mit proinflammatorischer und ödembildender Eigenschaften verantwortlich ist, wurde der Einfluß von R-Flurbiprofen auf das Zymosan-induzierte Rattenpfotenödem bestimmt (Methode beschrieben bei: Meller ST und Gebhart GF: Intraplantar zymosan as a reliable, quantifiable model of thermal and mechanical hyperalgesia in the rat; European Journal of Pain, 1, 43-52 (1997). Abbildung 3 a - c faßt die Ergebnisse zusammen. Abb. 3a - c: Zeitabhängige Zunahme des Rattenpfotenvolumens (gemessen mit einem Plethysmographen) nach intraplantarer Applikation von Zymosan. Nach Applikation von Zymosan [Meller and Gebhart (s.o.)] in eine Hinterpfote der Ratte kommt es als Zeichen einer Entzündung zur Zunahme des Pfotenvolumens (Placebo-Gruppe, Applikation von Vehicle = Phosphatpuffer (PP)). […] Dieser Effekt war besonders ausgeprägt zwischen der 2. und 6. Stunde nach Zymosan-Applikation. Dexamethason (0,5 mg/kg Körpergewicht), ein bekannter Hemmer der NF-κB Aktivierung, wurde als Positivkontrolle eingesetzt. […] S-Flurbiprofen ist ein bekannter Hemmer der Cyclooxygenasen. Abb. 4: Zusammenfassung der Effekte von 9 mg/kg R-Flurbiprofen, 9 mg/kg S-Flurbiprofen und 0,5 mg/kg Dexamethason gegen Placebo (V) über 24 Stunden.

[2] = tested on: akutem Postepisiotomie-Schmerz; experiment: Placebo-controlled double-blind study in acute post-episiotomy pain; format: in vivo, Frauen; details: single oral dose 25 mg or 100 mg, pain scale 0-3 over 360 min, Abb. 1
Method: Abb. 1: Placebo-kontrollierte Doppelblind-Studie an 180 Frauen mit akutem Postepisiotomie-Schmerz (Mittelwertkurven)
Die hospitalisierten Patienten wurden in drei Medikationsgruppen mit je 50 Patienten und einer Placebogruppe (30 Patienten) randomisiert. Jede Patientin erhielt innerhalb 48 Stunden nach der ansonsten normal verlaufenden Entbindung eine Einzeldosis der zu untersuchenden Studienmedikation (25 mg R(-)Flurbiprofen oder 100 mg R(-)Flurbiprofen oder 1000 mg Paracetamol) oder ein Placebo oral verabreicht. Kurz vor der oralen Gabe der Testpräparate bzw. des Placebos und zu genau festgelegten Untersuchungszeitpunkten (15, 30, 45, 60, 120, 180, 240, 300 und 360 Minuten) wurden die Patienten bezüglich ihres Schmerzempfindens befragt. Die Wirksamkeit der einzelnen Präparate wurde anhand einer Schmerzempfindungs-Skala (0 = keine, 1 = mild, 2 = moderat, 3 = stark) beurteilt. Die zeitlichen Verläufe sind in den in Abbildung 1 wiedergegebenen Mittelwertkurven der einzelnen Patientengruppen zusammengefaßt.

[3] = tested on: NF-κB (p50/p65 Komplex von NF-κB); experiment: Electro mobility-shift assay (gel retention analysis) of LPS-induced NF-κB activation in RAW cells; format: cell-based
From the text: Die erfindungsgemäßen Arzneimittel auf der Basis von R-Arylpropionsäuren und deren Derivaten gemäß Anspruch 1 als Hemmer der NF-κB-Aktivierung zur Therapie von Erkrankungen, welche durch die Modifizierung der NF-κB-Aktiierung beeinflußt werden, beruht auf folgenden experimentellen Untersuchungen: Abb. 2: Konzentrationsabhängiger Einfluß von R- und S-Flurbiprofen auf die Aktivierung des Transkriptionsfaktors NF-κB in RAW-Zellen. Die Gelretentionsanalyse (Electro Mobility-Shift Assay; DIG Gel Shift Kit, Boehringer Mannheim) zeigt, daß LPS (1 µg/ml) zu einer Aktivierung von NF-κB (p50/p65 Komplex von NF-κB) führt (Spur Nr. 2 und 10). […] Eine densitometrische Auswertung ergab, daß S-Flurbiprofen hinsichtlich dieser Eigenschaften ca. 100 mal weniger potent war (Spur Nr. 11, 12, 13,14, gegen Spur Nr. 10 als Kontrolle). Spur Nr. 1 und 8 zeigen jeweils unstimulierte Kontrollzellen.

[4] = tested on: gastrointestinale Verträglichkeit; details: studies in humans, literature; cited from earlier work
[5] = tested on: postoperative dental pain; details: clinical study in patients, literature; cited from earlier work

CC(C(=O)O)c1ccc(-c2ccccc2)c(F)c1 (stereo not shown) [Flurbiprofen]
Hemmung der Aktivierung von NF-κB (NF-κB): ausgeprägte Hemmung der Aktivierung von NF-κB

CC(C(=O)O)c1cccc(C(=O)c2ccccc2)c1 (stereo not shown) [Ketoprofen]
Hemmung der Aktivierung von NF-κB (NF-κB): ausgeprägte Hemmung der Aktivierung von NF-κB

COc1ccc2cc([C@H](C)C(=O)O)ccc2c1 [Naproxen]
Hemmung der Aktivierung von NF-κB (NF-κB): ausgeprägte Hemmung der Aktivierung von NF-κB

C[C@@H](C(=O)O)c1ccc(-c2ccccc2)c(F)c1 [R-Flurbiprofen]
Effekte auf das Pfotenvolumen über 24 Stunden gegen Placebo ([1]; 9 mg/kg, compared with 0,5 mg/kg Dexamethason, Abb. 4): vergleichbar mit denen nach 0,5 mg/kg Dexamethason | Zeitraum, in dem der Effekt auf das Pfotenvolumen besonders ausgeprägt war ([1]; hours after zymosan application): zwischen der 2. und 6. Stunde | Pfotenvolumen [1]: überraschende Abnahme des Pfotenvolumens | schmerzlindernde Wirkung [2]: nachgewiesen | Hemmung der LPS induzierten Aktivierung von NF-κB ([3]; RAW-Zellen, LPS 1 µg/ml, micromolar concentrations, Abb. 2): waren in der Lage diese LPS induzierte Aktivierung von NF-κB zu hemmen | Hemmung der NF-κB Aktivierung, mal potenter als die entsprechenden S-Enantiomere ([3]; relative to the corresponding S-enantiomer): ca. 100 mal | gastrointestinale Verträglichkeit [4]: gute gastrointestinale Verträglichkeit

C[C@@H](C(=O)O)c1cccc(C(=O)c2ccccc2)c1 [R-Ketoprofen]
schmerzlindernde Wirkung [5]: nachgewiesen

C[C@H](C(=O)O)c1ccc(-c2ccccc2)c(F)c1 [S-Flurbiprofen, reference compound]
Pfotenvolumen [1]: Reduktion des Pfotenvolumens | Potenz der Hemmung der NF-κB Aktivierung, mal weniger potent than R-Flurbiprofen ([3]; densitometric evaluation of the gel shift, RAW-Zellen, LPS 1 µg/ml): ca. 100 mal
